The target in one assay is T1, PI3 kinase isoform beta (Homo sapiens, UniProt P42338).
T1 construct: made in house
The assay is described as follows: PI3K scintillation proximity kinase assay, beta isoform. It counts as biochemical. How it is done: (§1) Activity of compounds in Table 4, expressed as Ki the dissociation constant for inhibition binding, were determined using the following test procedures.
(§2) Baculovirus expressing different fragments of PI3Kγ fused to GST have been previously described by Stoyanova, S., Bulgarelli-Leva, G., Kirsch, C., Hanck, T., Klinger, R., Wetzker, R., Wymann, M. P. (1997) Lipid- and protein kinase activities of G protein-coupled PI 3-kinase gamma: structure-activity analysis and interactions with wortmannin. Biochem. J., 324:489. Residues 38-1102 of human PI3Kγ are subcloned into the BamH1 and EcoR1 sites of the transfer vector pAcG2T (Pharmingen) to create a GST-P13Kγ lacking the first 37 residues of PI3Kγ. To express the recombinant protein, Sf9 (Spodoptera frugiperda 9) insect cells are routinely maintained at densities between 3×10^5 and 3×10^6 cells/ml in serum containing TNMFH medium (Sigma). Sf9 cells, at a density of 2×10^6 are infected with human GST-PI3γΔ34 baculovirus at a multiplicity of infection (m.o.i.) of 1 for 72 hours. The infected cells are harvested by centrifugation at 1400 g for 4 minutes at 4° C. and the cell pellets are frozen at −80° C. Both Sf9 and Sf21 cells work equally well. […] Cell lysate (supernatant) is added (usually as 50 ml lysate to 1 ml GST resin in 50 ml tubes) and gently rotated on a mixer at 4° C. for 2-3 hours. The unbound flow through sample is collected by centrifugation at 1000 g for 5 minutes at 4° C. using a DENLEY™ centrifuge. The 1 ml GST resin containing bound material is transferred to a 15 ml FALCON™ centrifuge tube for subsequent washing and elution steps. Firstly a series of 3 cycles of washings (mixing by gentle inversion) is performed with 15 ml ice cold wash Buffer A (50 mM Tris-HCl pH 7.5, 1% Triton X-100, 2 mM DTT) interspersed with centrifugation at 1000 g for 5 minutes at 4° C. A final single wash step is performed with 15 ml ice cold wash Buffer B (50 mM Tris-HCl pH 7.5, 2 mM DTT) and then centrifuged at 1000 g for 5 minutes at 4° C. The washed GST resin is finally eluted with 4 cycles of 1 ml ice cold elution buffer (50 mM Tris-HCl pH 7.5, 10 mM reduced glutathione, 2 mM DTT, 150 mM NaCl, 1 mM NaF, 50% ethylene glycol and protease inhibitors) interspersed with centrifugation at 1000 g for 5 minutes at 4° C. Samples are aliquoted and stored at −20° C. The isoforms in Table 4 were similarly purified.
(§3) An in vitro kinase assay was established that measures the transfer of the terminal phosphate of adenosine triphosphate to phosphatidylinositol. The kinase reaction is performed in a white 96 well microtitre plate as a Scintillation Proximity Assay. […] The plate is incubated at room temperature for 60 minutes and the reaction terminated by the adding 150 μl of WGA-bead stop solution (40 mM Tris, 200 mM NaCl, 2 mM EGTA, 1.3 mM ethylene diamine tetraacetic acid (EDTA), 2.6 μM ATP and 0.5 mg of Wheat Germ Agglutinin-SPA beads (Amersham Biosciences) to each well. The plate is sealed, incubated at room temperature for 60 minutes, centrifuged at 1200 rpm and then counted for 1 minute using a scintillation counter. Total activity is determined by adding 10 μl of 5% dimethylsulphoxide (DMSO) and non-specific activity is determined by adding 10 μl 50 mM EDTA in place of the test compound.
On the technique in general: In a scintillation proximity assay essentially only radioactivity close to the scintillant gives light.

The target in another assay is T2, PI3 kinase isoform alpha (Homo sapiens, UniProt P42336).
T2 construct: made in house
Description: PI3K scintillation proximity kinase assay, alpha isoform. It counts as biochemical. The method, then:
as §1, §2, §3

For the next assay, the target named is T3, human PI3Kγ (GST-p110γ) (Homo sapiens, UniProt P48736).
T3 construct: Residues 38-1102 of human PI3Kγ are subcloned into the BamH1 and EcoR1 sites of the transfer vector pAcG2T; made in house; host or cells: Sf9 (Spodoptera frugiperda) insect cells, baculovirus
Description: PI3K scintillation proximity kinase assay, gamma isoform. It counts as biochemical. The note with it: PI3 kinase isoform gamma. How it is done:
as §1, §2, §3

Another assay concerns the target T4, PI3 kinase isoform delta (Homo sapiens, UniProt O00329).
T4 construct: made in house
T4 sequence (O00329 1-1044): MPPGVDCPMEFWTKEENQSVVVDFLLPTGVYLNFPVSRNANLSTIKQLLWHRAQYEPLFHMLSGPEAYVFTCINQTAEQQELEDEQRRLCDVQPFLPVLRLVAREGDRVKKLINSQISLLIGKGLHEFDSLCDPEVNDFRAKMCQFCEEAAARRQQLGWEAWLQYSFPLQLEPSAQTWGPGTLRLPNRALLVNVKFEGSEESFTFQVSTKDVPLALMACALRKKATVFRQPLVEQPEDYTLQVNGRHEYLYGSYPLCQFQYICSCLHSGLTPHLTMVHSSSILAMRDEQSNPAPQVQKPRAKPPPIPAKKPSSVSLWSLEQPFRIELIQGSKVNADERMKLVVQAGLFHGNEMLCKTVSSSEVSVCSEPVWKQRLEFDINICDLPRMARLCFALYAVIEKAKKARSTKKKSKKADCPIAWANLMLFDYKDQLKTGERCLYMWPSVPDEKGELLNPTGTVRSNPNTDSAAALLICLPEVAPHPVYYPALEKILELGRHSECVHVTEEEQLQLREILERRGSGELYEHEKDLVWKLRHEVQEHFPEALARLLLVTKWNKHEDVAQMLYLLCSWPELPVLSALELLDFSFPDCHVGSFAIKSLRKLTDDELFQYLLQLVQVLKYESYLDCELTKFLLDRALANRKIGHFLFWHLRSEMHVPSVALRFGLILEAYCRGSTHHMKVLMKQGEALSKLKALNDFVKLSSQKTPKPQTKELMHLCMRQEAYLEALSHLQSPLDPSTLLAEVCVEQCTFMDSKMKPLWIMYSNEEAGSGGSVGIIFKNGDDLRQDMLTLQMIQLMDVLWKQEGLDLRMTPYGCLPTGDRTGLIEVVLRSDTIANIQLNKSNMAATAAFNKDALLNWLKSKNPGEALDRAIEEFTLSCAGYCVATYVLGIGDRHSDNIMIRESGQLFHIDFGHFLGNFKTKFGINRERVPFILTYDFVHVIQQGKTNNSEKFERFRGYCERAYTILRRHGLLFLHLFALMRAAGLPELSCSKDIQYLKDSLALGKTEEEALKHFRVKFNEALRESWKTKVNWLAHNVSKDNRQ
The assay is described as follows: PI3K scintillation proximity kinase assay, delta isoform. Type of assay: biochemical. How it is done:
as §1, §2, §3

In assay [1] the test system is subcutaneous A2780 ovarian xenograft tumors. The assay is described as follows: A2780 human ovarian xenograft model in nude mice. It counts as in vivo. The note with it: 30 mg/kg daily p.o., day 6, p<0.001 vs vehicle (ANOVA). How it is done:
Female nude mice (6-8 weeks of age; Charles River) were implanted subcutaneously with A2780 (5×10^6 cells/mouse in 0.1 ml HBSS) cells into the right flank. […] Tumor volumes were measured (SE is the standard error of the mean).
Tumors from mice treated with vehicle were also harvested as controls.
In general terms: Xenograft models place foreign cells or tissue in a host animal.

Assay [2] has as its system pSer473-Akt in A2780 cells. Description: pSer473 Akt assay to monitor PI3K pathway in A2780 cells (MSD). Type of assay: cell-based. Conditions: Homo sapiens; A2780 cells; read-out: A2780 pAKT 473 EC50. Put shortly: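 A2780 cells (15,000/well, adhered overnight) treated 1 h at 37 °C with compound, then lysed; pSer473-Akt and total Akt measured by MSD electrochemiluminescence. The pSer473/total Akt ratio gave percent inhibition versus DMSO, from which EC50 was derived.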

A value given as a limit tells only on which side of the number the result lay.

T2 sequence (P42336 whole entry, canonical isoform): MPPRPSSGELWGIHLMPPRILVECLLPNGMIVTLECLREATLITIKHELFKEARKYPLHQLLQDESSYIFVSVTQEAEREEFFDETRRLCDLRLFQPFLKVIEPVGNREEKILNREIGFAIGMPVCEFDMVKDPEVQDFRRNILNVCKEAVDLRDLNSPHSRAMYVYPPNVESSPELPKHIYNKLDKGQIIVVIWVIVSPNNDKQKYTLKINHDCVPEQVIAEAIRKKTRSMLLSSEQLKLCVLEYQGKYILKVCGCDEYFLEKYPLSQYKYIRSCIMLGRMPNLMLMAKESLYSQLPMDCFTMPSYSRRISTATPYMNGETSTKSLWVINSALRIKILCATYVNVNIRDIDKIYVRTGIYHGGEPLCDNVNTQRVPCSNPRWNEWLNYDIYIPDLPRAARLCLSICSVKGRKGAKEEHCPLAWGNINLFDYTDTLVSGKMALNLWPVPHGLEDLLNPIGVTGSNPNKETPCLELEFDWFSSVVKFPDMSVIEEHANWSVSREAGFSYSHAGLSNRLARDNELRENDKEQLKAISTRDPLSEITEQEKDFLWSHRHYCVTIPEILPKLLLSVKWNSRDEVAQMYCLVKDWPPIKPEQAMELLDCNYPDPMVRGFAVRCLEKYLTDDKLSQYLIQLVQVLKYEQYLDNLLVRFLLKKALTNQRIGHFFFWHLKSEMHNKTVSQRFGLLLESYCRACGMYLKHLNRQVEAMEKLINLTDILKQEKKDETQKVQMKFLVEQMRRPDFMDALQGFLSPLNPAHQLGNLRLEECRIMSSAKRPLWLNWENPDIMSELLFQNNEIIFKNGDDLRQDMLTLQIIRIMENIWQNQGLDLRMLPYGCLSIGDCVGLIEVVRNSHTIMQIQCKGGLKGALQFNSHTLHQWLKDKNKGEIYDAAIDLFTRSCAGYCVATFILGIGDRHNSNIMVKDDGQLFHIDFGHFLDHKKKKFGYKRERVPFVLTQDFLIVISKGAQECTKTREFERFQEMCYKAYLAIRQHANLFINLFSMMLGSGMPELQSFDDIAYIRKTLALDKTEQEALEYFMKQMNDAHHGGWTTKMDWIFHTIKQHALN
T3 sequence (P48736 38-1102): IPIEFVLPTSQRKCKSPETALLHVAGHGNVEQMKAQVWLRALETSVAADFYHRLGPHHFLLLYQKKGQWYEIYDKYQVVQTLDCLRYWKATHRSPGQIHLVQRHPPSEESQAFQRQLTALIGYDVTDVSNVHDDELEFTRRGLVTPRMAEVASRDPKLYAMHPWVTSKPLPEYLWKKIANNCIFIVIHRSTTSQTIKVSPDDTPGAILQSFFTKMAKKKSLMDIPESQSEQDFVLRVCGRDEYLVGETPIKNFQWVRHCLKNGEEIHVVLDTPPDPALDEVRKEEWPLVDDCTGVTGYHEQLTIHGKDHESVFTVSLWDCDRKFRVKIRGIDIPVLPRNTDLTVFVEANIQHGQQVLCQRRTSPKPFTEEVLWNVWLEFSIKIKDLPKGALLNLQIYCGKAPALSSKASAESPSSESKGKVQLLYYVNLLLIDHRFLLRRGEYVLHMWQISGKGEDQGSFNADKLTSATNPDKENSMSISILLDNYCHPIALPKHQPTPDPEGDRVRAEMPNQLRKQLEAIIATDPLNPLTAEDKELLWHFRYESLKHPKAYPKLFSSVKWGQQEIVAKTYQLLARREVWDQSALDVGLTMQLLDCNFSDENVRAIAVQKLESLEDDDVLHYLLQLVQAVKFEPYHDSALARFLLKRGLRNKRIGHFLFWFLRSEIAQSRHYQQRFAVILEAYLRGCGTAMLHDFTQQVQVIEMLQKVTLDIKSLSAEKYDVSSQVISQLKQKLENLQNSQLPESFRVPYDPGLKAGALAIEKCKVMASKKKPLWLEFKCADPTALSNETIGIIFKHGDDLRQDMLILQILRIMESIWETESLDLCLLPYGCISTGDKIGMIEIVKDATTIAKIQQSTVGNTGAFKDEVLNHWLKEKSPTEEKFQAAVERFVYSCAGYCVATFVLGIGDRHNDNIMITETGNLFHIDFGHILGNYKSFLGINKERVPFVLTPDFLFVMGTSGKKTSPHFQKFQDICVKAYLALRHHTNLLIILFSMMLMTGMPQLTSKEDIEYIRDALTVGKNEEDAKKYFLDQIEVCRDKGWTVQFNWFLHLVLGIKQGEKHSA
T1 sequence (P42338 whole entry, canonical isoform): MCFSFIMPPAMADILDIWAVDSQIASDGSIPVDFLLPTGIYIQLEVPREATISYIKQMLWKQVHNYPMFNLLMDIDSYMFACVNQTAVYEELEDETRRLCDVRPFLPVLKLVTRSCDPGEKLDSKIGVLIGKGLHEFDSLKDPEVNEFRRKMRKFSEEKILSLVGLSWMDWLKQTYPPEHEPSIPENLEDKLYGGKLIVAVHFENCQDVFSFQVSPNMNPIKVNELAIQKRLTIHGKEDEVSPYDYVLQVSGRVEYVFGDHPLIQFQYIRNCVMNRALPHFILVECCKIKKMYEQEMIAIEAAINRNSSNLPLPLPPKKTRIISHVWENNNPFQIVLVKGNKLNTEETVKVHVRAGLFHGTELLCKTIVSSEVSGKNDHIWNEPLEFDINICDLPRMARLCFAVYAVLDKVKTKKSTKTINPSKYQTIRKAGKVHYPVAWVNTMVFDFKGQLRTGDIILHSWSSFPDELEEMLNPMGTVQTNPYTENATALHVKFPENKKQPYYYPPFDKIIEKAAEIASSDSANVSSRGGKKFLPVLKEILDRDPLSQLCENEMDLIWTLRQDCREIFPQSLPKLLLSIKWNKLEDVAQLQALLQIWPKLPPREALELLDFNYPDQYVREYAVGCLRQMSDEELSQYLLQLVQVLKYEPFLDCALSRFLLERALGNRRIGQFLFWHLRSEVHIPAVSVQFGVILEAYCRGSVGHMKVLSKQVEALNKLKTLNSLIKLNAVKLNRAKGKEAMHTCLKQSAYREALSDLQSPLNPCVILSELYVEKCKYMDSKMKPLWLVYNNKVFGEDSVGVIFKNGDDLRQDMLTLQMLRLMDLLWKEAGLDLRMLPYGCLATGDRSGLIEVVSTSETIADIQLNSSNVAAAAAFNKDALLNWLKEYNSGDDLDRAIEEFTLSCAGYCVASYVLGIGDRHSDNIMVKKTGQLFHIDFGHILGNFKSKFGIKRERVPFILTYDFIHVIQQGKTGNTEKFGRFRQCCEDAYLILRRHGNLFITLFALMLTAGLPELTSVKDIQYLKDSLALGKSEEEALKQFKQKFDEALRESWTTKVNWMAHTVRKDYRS

Regarding `CC(C)n1nnc(CCNC(=O)Nc2cn3cc(-c4cnc(N)c(C(F)(F)F)c4)ccc3n2)n1` [Example 3-2, 1-[6-(6-Amino-5-trifluoromethyl-py-ridin-3-yl)-imidazo[1,2-a]pyridin-2-yl]-3-[2-(2-isopropyl-2H-tetrazol-5-yl)-ethyl]-urea], the Ki on PI3 kinase isoform beta, at PI3 kinase isoform alpha, at human PI3Kγ (GST-p110γ) and at PI3 kinase isoform delta was under 1 µM each time.
Turning to `CC(C)n1nnc(CCNC(=O)Nc2cn3cc(-c4ccc(N)nc4)ccc3n2)n1` [Example 3-3, 1-[6-(6-Amino-pyridin-3-yl)-imidazo[1,2-a]pyridin-2-yl]-3-[2-(2-isopropyl-2H-tetrazol-5-yl)-ethyl]-urea], the Ki at PI3 kinase isoform beta was under 1 µM; at PI3 kinase isoform alpha, under 10 µM; on human PI3Kγ (GST-p110γ), under 1 µM; at PI3 kinase isoform delta it was under 1 µM.
As to `CC(=O)Nc1cn2cc(-c3cnc(N)c(OC(C)C(F)(F)F)n3)ccc2n1` (stereo not shown) [Example 57, N-(6-(5-amino-6-(1,1,1-trifluoropropan-2-yloxy)pyrazin-2-yl)imidazo[1,2-a]pyridin-2-yl)acetamide], the tumor growth inhibition in assay [1] was determined as 79%. Also, the EC50 in assay [2] is under 1 µM.
Regarding `Nc1ncc(-c2ccc3nc(NC(=O)NCCn4nnc(C5CC5)n4)cn3c2)cc1C(F)(F)F` [Example 3-5, 1-[6-(6-Amino-5-trifluoromethyl-py-ridin-3-yl)-imidazo[1,2-a]pyridin-2-yl]-3-[2-(5-cyclopropyl-tetrazol-2-yl)-ethyl]-urea], the inhibition constant (Ki) at PI3 kinase isoform beta, on PI3 kinase isoform alpha, at human PI3Kγ (GST-p110γ) and on PI3 kinase isoform delta was under 1 µM throughout.
Consider `CCc1nnn(CCNC(=O)Nc2cn3cc(-c4cnc(N)c(C(F)(F)F)c4)ccc3n2)n1` [Example 3-4, 1-[6-(6-Amino-5-trifluoromethyl-py-ridin-3-yl)-imidazo[1,2-a]pyridin-2-yl]-3-[2-(5-ethyl-tetrazol-2-yl)-ethyl]-urea], for which the Ki on PI3 kinase isoform beta, at PI3 kinase isoform alpha, at human PI3Kγ (GST-p110γ) and on PI3 kinase isoform delta was under 1 µM in each case.
As to `CCn1nnc(CCNC(=O)Nc2cn3cc(-c4cnc(N)c(C(F)(F)F)c4)ccc3n2)n1` [Example 3-1, 1-[6-(6-Amino-5-trifluoromethyl-pyridin-3-yl)-imidazo[1,2-a]pyridin-2-yl]-3-[2-(2-ethyl-2H-tetrazol-5-yl)-ethyl]-urea], the Ki on PI3 kinase isoform beta, at PI3 kinase isoform alpha, on human PI3Kγ (GST-p110γ) and on PI3 kinase isoform delta was under 1 µM in each case.

A word on the Ki: it is a measure of affinity in units of concentration, obtained from inhibition or displacement. Broadly, the EC50 is the concentration that produces a half-maximal response.
